# From US20090291945A1, “CYSTEINE PROTEASE INHIBITORS” (Teijin Pharma Limited, priority 2008, published 2009)
# Biological target: T1, cathepsin K (Homo sapiens, UniProt P43235)
# T1 construct: the active enzyme was obtained as the enzyme fraction by using detergent containing lysis buffer; made in house; host or cells: HEK293T (GenHunter Corporation), transient expression; detergent lysate used as enzyme fraction
# T1 sequence (P43235 115-329): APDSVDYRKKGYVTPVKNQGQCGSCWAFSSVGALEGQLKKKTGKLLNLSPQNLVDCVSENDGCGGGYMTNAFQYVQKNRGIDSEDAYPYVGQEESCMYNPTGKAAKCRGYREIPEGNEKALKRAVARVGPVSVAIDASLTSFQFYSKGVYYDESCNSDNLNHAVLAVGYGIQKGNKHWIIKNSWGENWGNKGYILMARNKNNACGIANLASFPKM
# Test: Cathepsin K inhibitory activity (fluorescent substrate Z-Leu-Arg-MCA)
# Type: biochemical
# Settings: enzyme expressed in HEK293T; 15 min preincubation, 30 min reaction at room temperature, pH 5.5; read-out: Activity Intensity (cathepsin K inhibitory activity, pIC50 class) (converted)
# Method: Cathepsin K inhibitory activities of the compounds synthesized according to the methods of the above examples were measured.
# Cathepsin K used for evaluation of inhibitory activity was transiently expressed in an animal cell HEK293T (made by GenHunter Corporation) and the active enzyme was obtained as the enzyme fraction by using detergent containing lysis buffer.
# The enzyme solution A was prepared at 2.1 times final concentration by diluting the enzyme fraction with assay buffer (50 mM sodium acetate, 50 mM sodium chloride, 2 mM DTT, pH 5.5). The test compound solutions B were prepared at 50 times final target concentrations by dimethylsulfoxide (DMSO). As a substrate solution C, a solution of a fluorescent substrate, benzyloxycarbonyl-L-leucyl-L-arginyl-4-methyl-coumaryl-7-amide (Z-Leu-Arg-MCA (Peptide Institute Inc.), was prepared at 10 μM by an assay buffer.
# To the enzyme solution A (38.4 μL) were added the test compound solutions B (1.6 μL) and mixed individually. The mixtures were incubated at room temperature for 15 minutes. To the incubated solutions were added the substrate solution C (40 μL) and the mixtures were reacted at room temperature for 30 minutes respectively. The fluorescence intensities of the enzyme reaction solutions were measured at excitation wavelength of 355 nm and measurement wavelength of 460 nm and the enzyme activities were calculated from these fluorescence intensities caused by 7-amino-4-methylcoumarine released. The enzyme activity with using DMSO instead of the test compound solution B was taken as 100% and the inhibitory rates at each concentration of the test compound were calculated. The […] response curve was fitted to the plots. The 50% inhibitory concentration against cathepsin K was calculated from this curve.
# Note that the symbols (+, ++, and +++) in this table represent the inhibitory activity values as below. Here, pIC50 is the value representing a negative logarithm of IC50, (−log10(IC50)). IC50 is a 50% inhibitory concentration.
row,Compound,IC50 [nM]
1,CC[C@@H](CNc1ccc(OC)cc1OC)NC(=O)[C@H](CC(C)C)N[C@@H](c1ccc(OC)cc1)C(F)(F)F [Compound 95],≤ 3.16
2,CC[C@@H](CNc1ccc(OCc2ccccc2)cc1)NC(=O)[C@H](CC(C)C)N[C@@H](c1ccccc1)C(F)(F)F [Compound 96],3.16 to 31.6
3,CC[C@@H](CNc1ccc(OCc2ccccc2)cc1)NC(=O)[C@H](CC(C)C)N[C@@H](c1ccc(OC)cc1)C(F)(F)F [Compound 97],3.16 to 31.6
4,CC[C@@H](CNc1ccc2c(c1)OCO2)NC(=O)[C@H](CC(C)C)N[C@@H](c1ccccc1)C(F)(F)F [Compound 99],31.6 to 10000
5,CC[C@@H](CNc1ccc2c(c1)OCO2)NC(=O)[C@H](CC(C)C)N[C@@H](c1ccc(OC)cc1)C(F)(F)F [Compound 100],31.6 to 10000
6,CC(C)C[C@H](N[C@@H](c1ccccc1)C(F)(F)F)C(=O)N[C@@H](CCCCNC(=O)OCc1ccccc1)CNc1ccc(N2CCOCC2)cc1 [Compound 102],≤ 3.16
7,CC(C)C[C@H](N[C@@H](c1ccccc1)C(F)(F)F)C(=O)N[C@@H](CCCNC(=O)OCc1ccccc1)CNc1ccc(N2CCOCC2)cc1 [Compound 103],≤ 3.16
8,CC(C)C[C@H](N[C@@H](c1ccccc1)C(F)(F)F)C(=O)N[C@@H](CNC(=O)OCc1ccccc1)CNc1ccc(N2CCOCC2)cc1 [Compound 104],≤ 3.16
9,CC(C)C[C@H](N[C@@H](c1ccccc1)C(F)(F)F)C(=O)N[C@@H](CCNC(=O)OCc1ccccc1)CNc1ccc(N2CCOCC2)cc1 [Compound 105],≤ 3.16
10,CC(C)C[C@H](N[C@@H](c1ccccc1)C(F)(F)F)C(=O)N[C@H](CNc1ccc(N2CCOCC2)cc1)CN(C)C [Compound 106],≤ 3.16
11,CC[C@@H](CNc1ccc(N2CCC(O)CC2)cc1)NC(=O)[C@H](CC(C)C)N[C@@H](c1ccccc1)C(F)(F)F [Compound 108],≤ 3.16
12,CCOC(=O)C1(C(C)C)CCN(c2ccc(NC[C@H](CC)NC(=O)[C@H](CC(C)C)N[C@@H](c3ccccc3)C(F)(F)F)cc2)CC1 [Compound 109],≤ 3.16
13,COc1ccc(NC[C@H](C)NC(=O)C2(NC(c3ccccc3)C(F)(F)F)CCCCC2)c(OC)c1 (some centres unmarked) [Compound 110],31.6 to 10000
14,CCOC(=O)C(F)(F)Oc1ccc(NC[C@H](CC)NC(=O)[C@H](CC(C)(C)F)N[C@@H](c2ccccc2)C(F)(F)F)c(OC)c1 [Compound 111],31.6 to 10000

# Further lines, results first:
row,IC50 [nM],Compound
1,31.6 to 10000,CC[C@@H](CNc1ccc(-n2ccnc2)cc1)NC(=O)[C@H](CC(C)C)N[C@@H](c1ccccc1)C(F)(F)F [Compound 112]
2,31.6 to 10000,CC[C@@H](CNc1ccc(-n2ccnc2)cc1)NC(=O)[C@H](CC(C)C)N[C@@H](c1ccc(OC)nc1)C(F)(F)F [Compound 113]
3,31.6 to 10000,CCOC(=O)c1ccnn1-c1ccc(NC[C@H](CC)NC(=O)[C@H](CC(C)C)N[C@@H](c2ccccc2)C(F)(F)F)cc1 [Compound 114]
4,31.6 to 10000,CCOC(=O)c1ccnn1-c1ccc(NC[C@H](CC)NC(=O)[C@H](CC(C)C)N[C@@H](c2ccc(OC)nc2)C(F)(F)F)cc1 [Compound 115]
5,31.6 to 10000,CC[C@H](N[C@@H](CC(C)C)C(=O)N[C@@H](CCS(C)(=O)=O)CNc1ccc(OC)cc1OC)C(F)(F)F [Compound 116]
6,≤ 3.16,CC[C@@H](CNc1ccc(OCC(=O)O)cc1OC)NC(=O)[C@H](CC(C)C)N[C@@H](c1ccccc1)C(F)(F)F [Compound 119]
7,3.16 to 31.6,CC[C@@H](CNc1ccc(OCC(=O)O)cc1OC)NC(=O)[C@H](CC(C)C)N[C@@H](c1ccc(=O)[nH]c1)C(F)(F)F [Compound 123]
8,31.6 to 10000,CC(C)C[C@H](N[C@@H](c1ccccc1)C(F)(F)F)C(=O)N[C@@H](CCCO)CNc1ccc(N2CCOCC2)cc1 [Compound 125]
9,3.16 to 31.6,CC(C)C[C@H](N[C@@H](c1ccccc1)C(F)(F)F)C(=O)N[C@@H](CN)CNc1ccc(N2CCOCC2)cc1 [Compound 128]
